Tests used:
GGTase I = molecular target: T1, GGTase I (Homo sapiens, UniProt P49354+P53609); experiment: In vitro GGTase I activity assay ([3H]GGPP transfer to H-Ras-CVLL); assay type: biochemical
T1 construct: GGTase I and FTase activities from 60,000×g supernatants of human Burkitt's lymphoma (Daudi) cells; host or cells: Daudi (human Burkitt's lymphoma) cells, 60,000xg supernatant
Experimental: (§1) A brief discussion of exemplary materials and methods follows. In vitro FTase and GGTase I activity assays were performed. GGTase I and FTase activities from 60,000×g supernatants of human Burkitt's lymphoma (Daudi) cells (American Type Culture Collection (ATCC), Rockville, Md.) were assayed as described previously.

FTase = molecular target: T2, FTase (Homo sapiens, UniProt P49354+P49356); experiment: In vitro FTase activity assay ([3H]FPP transfer to H-Ras-CVLS); assay type: biochemical; conditions: read-out: IC50, inhibition of FTase activity
T2 construct: GGTase I and FTase activities from 60,000×g supernatants of human Burkitt's lymphoma (Daudi) cells; host or cells: Daudi (human Burkitt's lymphoma) cells, 60,000xg supernatant
Experimental: as §1

[1] = tested on: MDA-MB-231 breast cancer tumors; experiment: Anti-tumor activity in the nude mouse tumor xenograft model; assay type: in vivo, nude mice; conditions: for average tumor size: vehicle 860±87
Experimental: Nude mice (nu/nu, Charles River, Wilmington, Mass.) were maintained in accordance with the Institutional Animal Care and Use Committee (IACUC) procedures and guidelines. MDA-MB-231 cells were harvested via trypsinization, pelleted at 805×g for 5 min, and re-suspended in a 50:50 mixture of sterile PBS and Matrigel (BD Biosciences) at 10×10^6 cells per 100 μl. A volume of 100 μl (˜10×10^6 cells) was injected orthotopically into the upper mammary fat pads of nude mice. The tumor xenografts were monitored by electronic caliper measurements and tumor volume (V) was calculated using the formula V=W^2L/2, where width (W) is […]. When the tumors reached ˜100 mm^3, the animals were randomized and injected intraperiteoneally daily with vehicle (70% DMSO), or 100 mg/kg GGTI-2417 or GGTI-2418, or every third day with GGTI-2418 (200 mg/kg. Tumors were measured every third day for 12-18 days.

[2] = tested on: ErbB2-driven mammary tumors; experiment: Anti-tumor activity in the ErbB2 transgenic mouse model; assay type: in vivo
Source text: (§2) A breeding pair of homozygous FVB/N-Tg (MMTVneu) 202Mul/J mice (JAX #002376, Bar Harbor, Me.) was used to generate a transgenic colony in accordance to IACUC protocols and procedures. Phenotypically, these mice overexpress the receptor tyrosine kinase ErbB2 driven by the MMTV promoter, which results in tumor formation at ˜200 days of age. Once tumors reached sizes above 800 mm^3, osmotic mini-pumps (Alzet, Cupertino, Calif.) were loaded with either vehicle (80% PEG300; 20% DMSO) or GGTI-2418 (100 mg/kg daily) and implanted subcutaneously under the dorsal surface of the mouse, between the shoulder blades. Vehicle or GGTI-2418 was constantly delivered for 14 days, during which tumor volumes were measured and calculated as described above. Tumor biopsies were snap frozen in liquid N2 and stored at −80° C. until further processed. Weighted tumor samples were mixed with the appropriate amount of T-PER® Tissue Protein Extraction Reagent (Pierce, Rockford, Ill.) containing protease inhibitor cocktail, 2 mM PMSF, 2 mM Na3VO4, and 6.4 mg/ml p-nitrophenylphosphate and homogenized with the PCR Tissue Homogenizing Kit (Fisher Scientific). The homogenate was centrifuged at 13,000×g for 30 min at 4° C. and the supernatant was subjected to Western blotting with the indicated antibodies.

p27, Rap1, phospho-Akt = experiment: Western blot of tumor biopsies from ErbB2 transgenic mice; assay type: in vivo, mouse
Source text: as §2

Cdk2 = conditions: previous report (Adnane et al. 1998); cited from earlier work
[3] = tested on: MDA-MB-468 breast cancer cells; experiment: Trypan Blue exclusion assay (proliferation, cell death) in MDA-MB-468 cells; assay type: cell-based, human; conditions: 5 nM p27 siRNA; 50 μM GGTI-2417 or 1 μM taxol
Experimental: Human MDA-MB-468 and MDA-MB-231 breast cancer cells and murine NIH 3T3 cells were obtained from the ATCC and cultured in DMEM medium. Human SK-Br3 and BT-474 breast cancer cells (ATCC) were cultured in McCoy's 5a medium and Hybri-Care medium, respectively. Mouse embryonic fibroblast (MEF) cells from p27 wild-type and p27 null mice were grown in DMEM. All media were supplemented with 10% fetal calf serum, 10 units/ml penicillin, and 10 μg/ml streptomycin. Subconfluent cells were treated with different concentrations of GGTI, FTI or DMSO vehicle for specific time periods. After treatment, cells were harvested by trypsinization.
Pre-designed siRNA to p27 (Cat #118714) and the negative control (Cat #4611) were purchased from Ambion (Austin, Tex.). Twenty-four hours before transfection, MDA-MB-468 cells were plated onto twelve-well plates in fresh DMEM medium containing 10% FBS and no antibiotics. Transient transfection of siRNA was carried out using Oligofectamine reagent (Invitrogen, Carlsbad, Calif.), following the manufacturer's instructions. In brief, 5 nM of p27 siRNA or control siRNA were mixed with Opti-MEM medium (Invitrogen) in such a way so that the total volume went to 90 μl, and then complexed with a mixture of 2 μl of Oligofectamine and 8 μl Opti-MEM; the total volume of RNA:Oligofectamine complex was 100 μl. The RNA:Oligofectamine complex was then incubated for 20 min at room temperature before adding to the cells. Before transfection, the old medium was discarded, cells were washed once with fresh Opti-MEM and 400 μl of fresh Opti-MEM placed into each well before adding the RNA:Oligofectamine complex to each well. The final diluted volume on each well was 500 μl. After 8 h, 500 μl DMEM containing 30% FBS was added to each well and cells were further incubated for 40 h.
Adherent cells were harvested by trypsinization and diluted with 0.4% Trypan Blue dye and counted on a hemacytometer. Cells excluding the dye were scored as live cells, whereas cells absorbing the dye were scored as dead cells. Cell proliferation was determined by dividing the number of live cells in the treated sample by the number of live cells in the control, and the degree of cell death was expressed as percentage of dead cells of the total cell number.

Work on `Cc1nc[nH]c1CN1CCN(C(=O)N[C@@H](CC(C)C)C(=O)O)[C@@H](Cc2ccccc2)C1=O` [GGTI-2418] yielded a Ki (GGTase I; in vitro competition assay, read-out: Ki, competitive inhibition of GGTase I against H-Ras-CVLL protein) of 4.4 ± 1.6 nM, an IC50 (GGTase I; in vitro, H-Ras-CVLL, [3H]GGPP, read-out: IC50, inhibition of GGTase I activity) of 9.5 ± 2 nM and an IC50 (FTase) of 53000 ± 11000 nM. The tumor growth inhibition ([1]; 100 mg/kg daily i.p.) was 94%, the average tumor size ([1]; 100 mg/kg daily i.p.) was 139±17 mm^3 and the tumor growth inhibition ([1]; 200 mg/kg every 3rd day i.p.) was 77%. The average tumor size ([1]; 200 mg/kg every 3rd day i.p.) was 276±26 mm^3, the “tumor regression, average (S.E.M.)” value ([2]; 100 mg/kg, 7 mice, 17 tumors) was 60±4% and the “tumor decrease, representative example” value ([2]; 100 mg/kg/day, osmotic mini-pump) was 76%. The “S473 phosphorylation of Akt in tumors” value (p27, Rap1, phospho-Akt; pre vs post treatment biopsies) was “dramatic decrease”, the “geranylgeranylation of Rap1 in tumors” value (p27, Rap1, phospho-Akt; pre vs post treatment biopsies) was “inhibited the geranylgeranylation of Rap1” and the “change of p27 in post-treatment tumor samples (densitometry)” value (p27, Rap1, phospho-Akt; vehicle 0.63±0.19 fold, p=0.03) was 2.68±0.63 fold.
In the case of `COC(=O)[C@H](CC(C)C)NC(=O)c1ccc(NC[C@@H](N)CS)cc1-c1cccc2ccccc12` [GGTI-298], the Cdk2 activity (Cdk2) is listed as “inhibits Cdk2 activity”.
For `CC(=O)O[C@H]1C(=O)[C@@]2(C)[C@H]([C@H](OC(=O)c3ccccc3)[C@]3(O)C[C@H](OC(=O)[C@H](O)[C@@H](NC(=O)c4ccccc4)c4ccccc4)C(C)=C1C3(C)C)[C@]1(OC(C)=O)CO[C@@H]1C[C@@H]2O` [taxol, reference compound], the “tumor cell death in the presence of p27 siRNA” value [3] was “could still die”.
